In patent publication US11446287B2, “Compounds and methods for EP300 or CBP modulation and indications therefor” (Opna Immuno-Oncology SA, priority 2019, dated 2022):

Biological target: T1, Recombinant human EP300 containing the bromodomain (EP300-BD (1040-1161)) (Homo sapiens, UniProt Q09472)
T1 construct: Recombinant human EP300 bromodomain (EP300-BD (1040-1161)); made in house; host or cells: E. coli BL21-CodonPlus (DE3), modified pET vector
T1 sequence (Q09472 1040-1161): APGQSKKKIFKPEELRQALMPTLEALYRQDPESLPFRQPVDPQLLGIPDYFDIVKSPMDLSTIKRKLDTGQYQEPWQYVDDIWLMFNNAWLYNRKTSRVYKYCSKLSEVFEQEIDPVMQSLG
Assay: EP300 Alphascreen binding assay
Method: EP300 Alphascreen Binding Assay
Binding of compounds of Formula (I) with EP300 was assessed using Alphascreen™ binding assay. The inhibition of the interaction between the EP300 bromodomain and its acetylated target protein was measured quantitatively using recombinant EP300 protein, an acetylated Histone 3 peptide and AlphaScreen™ technology. In absence of inhibition of the EP300 protein bound to AlphaScreen™ nickel chelate acceptor beads can interact with the acetylated Histone 3 peptide which is immobilized by the AlphaScreen™ Streptavidin coated beads. This interaction brings donor and acceptor beads in proximity. The close proximity allows the singlet oxygen produced by laser excitation of the donor beads to reach the acceptor beads and generate a luminescence signal. EP300 inhibitors result in a decrease in the proximity signal through an inhibition of the EP300—acetylated peptide interaction.
Recombinant human EP300 containing the bromodomain (EP300-BD (1040-1161)) was prepared and purified as described in protein expression and purification session. The peptide is human Histone H345-64K56Ac-Biotin (Anaspec CA, USA).
Protocol for EP300 assay: All components were prepared in buffer composed of 50 mM HEPES pH 7.5, 50 mM NaCl, 0.01% BSA, 0.01% Triton X-100, 2 mM DTT. Test compounds and DMSO vehicle were diluted 1:50 in buffer and a 4 μL volume is transferred to an Alphaplate. 5.5 μL of EP300 protein and 5.5 μL of peptide were added to wells containing 4 μL of various concentrations of test compounds of Formula (I) or DMSO vehicle in an Alphaplate (PerkinElmer GA, USA) and incubated for 1 hour at room temperature. 5 μL donor and acceptor bead mixture was then added with final concentrations of 7.5 μg/ml. 60 minutes after bead addition, Alpha signal is read on the Envision spectrometer (λEx 680 nm, λEm 520-620 nm). Final concentrations of bromodomain proteins and peptide are as shown below.
All data were normalized to the mean of 16 high and 16 low control wells on each plate. A four parameter curve fit of the following formula was then applied: Y=A+((B−A)/(1+((C/x)^D))) Where ‘A’ is the minimum, ‘B’ is the maximum, ‘C’ is the IC50 and ‘D’ is the Hill slope. Protein Expression and Purification
Recombinant human EP300 bromodomain (EP300-BD (1040-1161)) was expressed in E. coli cells (in a modified pET vector) with an N-terminal six-His tag and purified using a combination of both IMAC (Ni-affinity) and size exclusion chromatography steps.
Recombinant EP300 protein was expressed using the E. coli strain BL21-CodonPlus (DE3) (Agilent Technologies CA, USA). Cells were grown in Terrific Broth (TB) media to an OD600 of 0.7 at 37° C. at which temperature was reduced to 18° C., protein was induced with 1.0 mM isopropyl-β-D-thiogalactopyranoside (“IPTG”) for 20 hours and harvested by centrifugation at 8500×g for 20 minutes. Cells were re-suspended in 0.1M K2PO4 pH 8.0, 250 mM NaCl, 10% Glycerol, 0.75% NP-40, 25 mM Imidazole, with 0.2 mg/ml Lysozyme, 0.2 mM phenylmethanesulfonyl fluoride (“PMSF”), 25 μg/ml DNase I, incubated on ice for 30 minutes and lysed with a cell disruptor (MicroFluidics MA, USA). The lysate was clarified by centrifugation at 20,000×g for 1 hour. The protein was captured with Ni-NTA resin (Life Technologies, USA). Contaminating proteins were washed off with 50 mM HEPES pH 7.5, 500 mM NaCl, and 5% Glycerol. Following 3× wash steps, protein was eluted step wise using 10, 25, 50, 100, 150, and 250 mM Imidazole in 50 mM HEPES pH 7.5, 500 mM NaCl, and 5% glycerol. The protein was further purified using a size exclusion column (26/600 Superdex 200, GE Biosciences NJ, USA) in 10 mM HEPES pH 7.5, […].

**Q.** With `Cc1noc(C)c1-c1cnc2c(c1)c(-c1ccc(C(=O)O)cc1OCC(F)(F)F)cn2[C@@H](C)c1ccccn1` [P-0115, (S)-4-(5-(3,5-dimethylisoxazol-4-yl)-1-(1-(pyridin-2-yl)ethyl)-1H-pyrrolo[2,3-b]pyridin-3-yl)-3-(2,2,2-trifluoroethoxy)benzoic acid] as the compound, how does the IC50 read?
**A.** 0.1 to 1000 nM

**Q.** Which IC50 does the source give for `Cc1noc(C)c1-c1cnc2c(c1)c(-c1ccnc(C(=O)O)n1)cn2C(C)c1ccccn1` (centres unmarked) [P-0126, 4-(5-(3,5-dimethylisoxazol-4-yl)-1-(1-(pyridin-2-yl)ethyl)-1H-pyrrolo[2,3-b]pyridin-3-yl)pyrimidine-2-carboxylic acid] here?
**A.** 0.1 to 1000 nM

**Q.** For `Cc1noc(C)c1-c1cnc2c(c1)c(-c1ccc(C(=O)O)cc1OC1COC1)cn2[C@@H](C)c1ccccn1` [P-0137, (S)-4-(5-(3,5-dimethylisoxazol-4-yl)-1-(1-(pyridin-2-yl)ethyl)-1H-pyrrolo[2,3-b]pyridin-3-yl)-3-(oxetan-3-yloxy)benzoic acid], which IC50 is on record?
**A.** 0.1 to 1000 nM

**Q.** For `Cc1noc(C)c1-c1cnc2c(C(=O)C3CCC3)cn(-c3c(Cl)cc(C(=O)O)cc3Cl)c2c1` [P-0121, 3,5-dichloro-4-(3-(cyclobutanecarbonyl)-6-(3,5-dimethylisoxazol-4-yl)-1H-pyrrolo[3,2-b]pyridin-1-yl)benzoic acid], which IC50 is on record?
**A.** 0.1 to 1000 nM

**Q.** With `COc1ccc(-n2cc(CC3CCC3)c3ncc(-c4c(C)noc4C)cc32)cn1` [P-0134, 4-(3-(cyclobutylmethyl)-1-(6-methoxypyridin-3-yl)-1H-pyrrolo[3,2-b]pyridin-6-yl)-3,5-dimethylisoxazole] as the compound, how does the IC50 read?
**A.** 1000 to 8000 nM

**Q.** `Cc1noc(C)c1-c1cnc2c(CC3CCC3)cn(-c3ccc(C(=O)O)cn3)c2c1` [P-0009, 6-(3-(cyclobutylmethyl)-6-(3,5-dimethylisoxazol-4-yl)-1H-pyrrolo[3,2-b]pyridin-1-yl)nicotinic acid] was tested. Which IC50 did it give?
**A.** 0.1 to 1000 nM

**Q.** Which IC50 does the source give for `CCOc1cc(C(=O)O)ccc1-c1cn([C@@H](C)c2ccccn2)c2ncc(-c3c(C)noc3C)cc12` [P-0114, (S)-4-(5-(3,5-dimethylisoxazol-4-yl)-1-(1-(pyridin-2-yl)ethyl)-1H-pyrrolo[2,3-b]pyridin-3-yl)-3-ethoxybenzoic acid] here?
**A.** 0.1 to 1000 nM

**Q.** For `Cc1noc(C)c1-c1cnc2c(CC3CCC3)cn(-c3ccc(C#N)c(C(=O)O)c3)c2c1` [P-0104, 2-cyano-5-(3-(cyclobutylmethyl)-6-(3,5-dimethylisoxazol-4-yl)-1H-pyrrolo[3,2-b]pyridin-1-yl)benzoic acid], which IC50 is on record?
**A.** 0.1 to 1000 nM

**Q.** For `COc1ccc(C(=O)O)cc1-c1cn(C(C)c2ccccc2)c2cc(-c3c(C)noc3C)cnc12` (centres unmarked) [P-0140, 3-(6-(3,5-dimethylisoxazol-4-yl)-1-(1-phenylethyl)-1H-pyrrolo[3,2-b]pyridin-3-yl)-4-methoxybenzoic acid], which IC50 is on record?
**A.** 0.1 to 1000 nM

**Q.** With `Cc1noc(C)c1-c1cnc2c(Cc3ccccn3)cn(-c3ccc(C(=O)O)cn3)c2c1` [P-0011, 6-(6-(3,5-dimethylisoxazol-4-yl)-3-(pyridin-2-ylmethyl)-1H-pyrrolo[3,2-b]pyridin-1-yl)nicotinic acid] as the compound, how does the IC50 read?
**A.** 0.1 to 1000 nM

**Q.** With `CCCOc1cc(C(=O)O)cc(OCCC)c1-n1cc(CC2CCC2)c2ncc(-c3c(C)noc3C)cc21` [P-0127, 4-(3-(cyclobutylmethyl)-6-(3,5-dimethylisoxazol-4-yl)-1H-pyrrolo[3,2-b]pyridin-1-yl)-3,5-dipropoxybenzoic acid] as the compound, how does the IC50 read?
**A.** 0.1 to 1000 nM

**Q.** For `Cc1noc(C)c1-c1cnc2c(Cc3ccccn3)cn(-c3ccc(C(=O)O)cc3OC(F)(F)F)c2c1` [P-0159, 4-(6-(3,5-dimethylisoxazol-4-yl)-3-(pyridin-2-ylmethyl)-1H-pyrrolo[3,2-b]pyridin-1-yl)-3-(trifluoromethoxy)benzoic acid], which IC50 is on record?
**A.** 0.1 to 1000 nM

**Q.** With `Cc1noc(C)c1-c1cnc2c(-c3cccc(CC(=O)O)c3)c(C(F)(F)F)n([C@@H](C)c3ccccn3)c2c1` [P-0161, (S)-2-(3-(6-(3,5-dimethylisoxazol-4-yl)-1-(1-(pyridin-2-yl)ethyl)-2-(trifluoromethyl)-1H-pyrrolo[3,2-b]pyridin-3-yl)phenyl)acetic acid] as the compound, how does the IC50 read?
**A.** 0.1 to 1000 nM

**Q.** `COc1cc(C(=O)O)cc(OC)c1-c1cn([C@@H](C)c2ccccn2)c2cc(-c3c(C)noc3C)cnc12` [P-0146, (S)-4-(6-(3,5-dimethylisoxazol-4-yl)-1-(1-(pyridin-2-yl)ethyl)-1H-pyrrolo[3,2-b]pyridin-3-yl)-3,5-dimethoxybenzoic acid] was tested. Which IC50 did it give?
**A.** 1000 to 8000 nM

**Q.** `CCOc1cc(C(=O)O)cc(OCC)c1-n1cc(C(O)(C2CC2)C2CC2)c2ncc(-c3c(C)noc3C)cc21` [P-0165, 4-(3-(dicyclopropyl(hydroxy)methyl)-6-(3,5-dimethylisoxazol-4-yl)-1H-pyrrolo[3,2-b]pyridin-1-yl)-3,5-diethoxybenzoic acid] was tested. Which IC50 did it give?
**A.** 0.1 to 1000 nM

**Q.** With `COc1cc(C(=O)O)cc(OCC2CC2)c1-c1cn([C@@H](C)c2ccccn2)c2ncc(-c3c(C)noc3C)cc12` [P-0152, (S)-3-(cyclopropylmethoxy)-4-(5-(3,5-dimethylisoxazol-4-yl)-1-(1-(pyridin-2-yl)ethyl)-1H-pyrrolo[2,3-b]pyridin-3-yl)-5-methoxybenzoic acid] as the compound, how does the IC50 read?
**A.** 0.1 to 1000 nM

**Q.** How did the IC50 turn out when `C#Cc1ccccc1-c1cn(C(C)(c2ccccn2)c2ccccn2)c2cc(-c3c(C)noc3C)cnc12` [P-0167, 4-(1-(1,1-di(pyridin-2-yl)ethyl)-3-(2-ethynylphenyl)-1H-pyrrolo[3,2-b]pyridin-6-yl)-3,5-dimethylisoxazole] was run?
**A.** 0.1 to 1000 nM

**Q.** How did the IC50 turn out when `Cc1noc(C)c1-c1cnc2c(CC3CCC3)cn(-c3ccc(C(=O)O)c4ccoc34)c2c1` [P-0110, 7-(3-(cyclobutylmethyl)-6-(3,5-dimethylisoxazol-4-yl)-1H-pyrrolo[3,2-b]pyridin-1-yl)benzofuran-4-carboxylic acid] was run?
**A.** 0.1 to 1000 nM

**Q.** Which IC50 does the source give for `Cc1noc(C)c1-c1cnc2c(-c3ccccc3C(=O)O)cn(C(C)c3ccccc3)c2c1` (centres unmarked) [P-0120, 2-(6-(3,5-dimethylisoxazol-4-yl)-1-(1-phenylethyl)-1H-pyrrolo[3,2-b]pyridin-3-yl)benzoic acid] here?
**A.** 0.1 to 1000 nM

**Q.** Which IC50 does the source give for `Cc1noc(C)c1-c1cnc2c(c1)c(-c1ccc(C(=O)O)cc1)cn2C(c1ccccn1)c1ccccn1` [P-0012, 4-(1-(di(pyridin-2-yl)methyl)-5-(3,5-dimethylisoxazol-4-yl)-1H-pyrrolo[2,3-b]pyridin-3-yl)benzoic acid] here?
**A.** 0.1 to 1000 nM

**Q.** With `Cc1noc(C)c1-c1cnc2c(c1)c(-c1ccc(C(=O)O)cc1OCC1CC1)cn2[C@@H](C)c1ccccn1` [P-0138, (S)-3-(cyclopropylmethoxy)-4-(5-(3,5-dimethylisoxazol-4-yl)-1-(1-(pyridin-2-yl)ethyl)-1H-pyrrolo[2,3-b]pyridin-3-yl)benzoic acid] as the compound, how does the IC50 read?
**A.** 0.1 to 1000 nM

**Q.** `Cc1noc(C)c1-c1cnc2c(-c3ccccc3)cn(-c3c(Cl)cc(C(=O)O)cc3Cl)c2c1` [P-0150, 3,5-dichloro-4-(6-(3,5-dimethylisoxazol-4-yl)-3-phenyl-1H-pyrrolo[3,2-b]pyridin-1-yl)benzoic acid] was tested. Which IC50 did it give?
**A.** 0.1 to 1000 nM

**Q.** `COc1cc(C(=O)O)cc(OCC(F)(F)F)c1-c1cn([C@@H](C)c2ccccn2)c2ncc(-c3c(C)noc3C)cc12` [P-0153, (S)-4-(5-(3,5-dimethylisoxazol-4-yl)-1-(1-(pyridin-2-yl)ethyl)-1H-pyrrolo[2,3-b]pyridin-3-yl)-3-methoxy-5-(2,2,2-trifluoroethoxy)benzoic acid] was tested. Which IC50 did it give?
**A.** 0.1 to 1000 nM
